The record followed here is patent EP0808325B1, “[…] […] SERIES FOR […] GABA RECEPTOR” (priority 1994, dated 1996).

For one assay, the target named is GR complex. The assay can be described thus: modulation of [35S]TBPS binding in rat cerebral cortex P2 homogenate. More on the design: species or system Sprague-Dawley rats; IMAX: unit not given here. A digest of the protocol: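 Rat (male Sprague-Dawley) cortical P2 homogenate, 0.5 mg protein, in 50 mM Na/K phosphate pH 7.4, 200 mM NaCl, incubated 90 min at 25° C with 2 nM [35S]TBPS plus GABA and (+)bicuculline, compounds added in DMSO. Filter-bound radioactivity counted; nonspecific binding defined with […].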

The subject of assay [1] is metrazol induced convulsions. The assay can be described thus: animal or person. The assay is classed as in vivo, mice.
A further assay has as its system maximal electroshock. The assay can be described thus: maximal electroshock test. The conditions noted are these: Mus musculus, ip, 20% hydroxypropyl-β-cyclodextrin in water. The class given is in vivo, mice. The text has this:
The anticonvulsant tests are similar to that described above. […]
(Protection in the maximal electroshock model is a classic sign of anticonvulsant action.)

The next assay has as its system mice. In words: elevated plus-maze. The assay is classed as in vivo, N.I.H. Swiss-Webster mice. The gist of the method:
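Male Swiss-Webster mice (15-20 g), dosed once with drug or vehicle, were placed on an elevated plus-maze 10 min post-injection for 5 min. Open-arm entries and open-arm time recorded, each as a percentage of total arm entries or time; center time excluded.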

A word on the IC50: it is the midpoint of a concentration-inhibition curve. As usually defined, the ED50 is the midpoint of the dose-response relation. As for `CC(=O)[C@H]1CC[C@H]2[C@@H]3CC[C@H]4C[C@H](O)CC[C@]4(C)[C@H]3CC[C@]12C` [3α-hydroxy-5α-pregnan-20-one, reference compound], the IC50 on GR complex (concentration of compounds to inhibit 50% of control [35S]TBPS binding, 2 nM [35S]TBPS, 25°C, 90 minutes, no unit printed) is 0.037 µM. The compound also gave an IMAX with GR complex (maximum inhibition of [35S]TBPS binding, I* = Inactive) of 95. Further, the “% Protected” value in assay [1] (IP, 50% hpbcd, 10 mg/kg, 10 minutes prior to metrazol (85 mg/kg)) is 100%. The 50% effective dose (ED50) amounted to 4.9 mg/kg in assay [1] (Mus musculus, metrazol s.c., steroid i.p., 20% hydroxypropyl-β-cyclodextrin in water) and 28.6 mg/kg with maximal electroshock. Besides, the “time spent on the open-arms” value with mice (10 mg/kg (p ≤ 0.01)) was “significant increases”. In addition, in the assay on mice (20 mg/kg (p ≤ 0.05)), the “entries into the open-arms” value is on record as “significant increase”. The “% Control” value with mice (IP, 50% hpbcd, 20 mg/kg) is 143.7%.
